Test results reported in patent publication US20210268115A1 (priority 2020, published 2021).
Where two headings read alike, the source gives them in different places.

Experiments:
[1] = male, Sprague-Dawley, in vivo
[2] = male, Sprague-Dawley, rat, in vivo
[3] = In vitro release of therapeutic agent from prodrugs in plasma supplemented with lipoprotein lipase; assay type: in vitro ADME; conditions: free allopregnanolone (parent API) in dog plasma supplemented with LPL, 37° C.
Protocol: In order to probe the release of free drug from TG prodrugs in the systemic circulation, prodrugs are incubated with plasma (rat, dog, monkey, or human) supplemented with lipoprotein lipase (LPL, 200 IU/ml). LPL is a key enzyme required for the hydrolysis of lipoprotein associated TG in the systemic circulation and is therefore expected to be a key contributor to lipolysis of the re-esterified drug-TG construct in plasma, largely via liberation of fatty acids in the sn-1 and the sn-3 position of the TG-mimetic, prior to drug release from the 2′ position via esterase hydrolysis. LPL is active in plasma but is tethered to the luminal surface of vascular endothelial cells under physiological conditions. In the current in vitro studies, plasma is therefore supplemented with LPL to better reflect the in vivo situation.
To start hydrolysis, 10 μl of LPL solution (10,000 IU/ml) will be added to a mixture of 10 μl of prodrug solution (1 mg/ml dissolved in organic solvent, e.g., THF, DMSO, or acetonitrile) and 500 μl of blank plasma. The mixture will be incubated at 37° C. […] The supernatant will be analyzed by HPLC-MS/MS for the potential products (MG form, acid form, and free drug) of prodrug hydrolysis.
The in vitro hydrolysis profile of selected prodrug compounds will be determined in rat, dog, monkey and/or human plasma supplemented with LPL.

[4] = cynomolgus monkey, in vivo; for Prodrug detectability in plasma after dose administration / Tmax: po; for Tmax: male, 8.8 umol/kg

Row | Compound | Cmax ([2]; 2 mg/kg) | Mean Plasma AUC, 0-24 h ([2]; 2 mg/kg) | Tmax ([2]; 2 mg/kg) | further results
1 | CC(=O)[C@H]1CC[C@H]2[C@@H]3CC[C@H]4C[C@H](O)CC[C@]4(C)[C@H]3CC[C@]12C [Allopregnanalone, 5α-pregnan-3α-ol-20-one] |  |  |  | Rat - cumulative lymphatic transport: Mean, total lymphatic transport over 6 or 8 hours (%) [1]: 0.1%
2 | CCCC(=O)OCC(COC(=O)CCC)OC(=O)CC(C)CC(=O)OC(C)OC(=O)O[C@@H]1CC[C@@]2(C)[C@@H](CC[C@@H]3[C@@H]2CC[C@]2(C)[C@@H](C(C)=O)CC[C@@H]32)C1 (stereo partly shown) [Compound I-37, ALL-CMSI-C5bMe-2-TG-butyrate] |  |  |  | Cmax ([2]; po): 138 nM; Mean Plasma AUC, 0-24 h ([2]; po): 0.191 µM·h; Tmax ([2]; po): 0.8 h
3 | CCCCCCCC/C=C\CCCCCCCC(=O)OCC(COC(=O)CCCCCCC/C=C\CCCCCCCC)OC(=O)CC(C)CCCCC(=O)OCO[C@@H]1CC[C@@]2(C)[C@@H](CC[C@@H]3[C@@H]2CC[C@]2(C)[C@@H](C(C)=O)CC[C@@H]32)C1 (stereo partly shown) [Compound I-42, ALL-ASI-C8bMe-2-TG-oleate] | 334 nM | 0.47 µM·h | 1.5 h | 
4 | CC(=O)OCC(COC(C)=O)OC(=O)CC(C)CC(=O)OC(C)OC(=O)O[C@@H]1CC[C@@]2(C)[C@@H](CC[C@@H]3[C@@H]2CC[C@]2(C)[C@@H](C(C)=O)CC[C@@H]32)C1 (stereo partly shown) [Compound I-38, ALL-CMSI-C5bMe-2-TG-acetate] |  |  |  | Cmax ([2]; po): 335 nM; Mean Plasma AUC, 0-24 h ([2]; po): 0.45 µM·h; Tmax ([2]; po): 1 h
5 | CCCCCCCCCCCCCCCC(=O)OCC(COC(=O)CCCCCCCCCCCCCCC)OC(=O)CC(C)CC(=O)OC(C)OC(=O)O[C@@H]1CC[C@@]2(C)[C@@H](CC[C@@H]3[C@@H]2CC[C@]2(C)[C@@H](C(C)=O)CC[C@@H]32)C1 (stereo partly shown) [Compound I-8, ALL-CMSI-C5bMe-2-TG] | 241 nM | 0.3681 µM·h | 2.3 h | Parent API present at end of experiment (%) [3]: B (≥20% and <60% release into plasma)
6 | CCC(=O)OCC(COC(=O)CC)OC(=O)C(C)CCCCCCCCC(C)C(=O)OCCCCC(=O)O[C@@H]1CC[C@@]2(C)[C@@H](CC[C@@H]3[C@@H]2CC[C@]2(C)[C@@H](C(C)=O)CC[C@@H]32)C1 (stereo partly shown) [Compound I-5, ALL-FSI5-C12a′aMe-2-TG] | 62.8 nM | 0.0839 µM·h | 1.8 h | 
7 | CCCCCCCC(=O)OCC(COC(=O)CCCCCCC)OC(=O)CC(C)CC(=O)OC(C)OC(=O)O[C@@H]1CC[C@@]2(C)[C@@H](CC[C@@H]3[C@@H]2CC[C@]2(C)[C@@H](C(C)=O)CC[C@@H]32)C1 (stereo partly shown) [Compound I-36, ALL-CMSI-C5bMe-2-TG-octanoate] |  |  |  | Tolerability of oral administration [4]: well-tolerated; Prodrug detectability in plasma after dose administration [4]: detectable in plasma samples after dose administration at all time-points; Tmax [4]: 4.0 h; Mean Plasma AUC, 0-24 h ([2]; po): 0.312 µM·h; Tmax ([2]; po): 1.2 h
8 | CCCCCCCC/C=C\CCCCCCCC(=O)OCC(COC(=O)CCCCCCC/C=C\CCCCCCCC)OC(=O)CCCCCCC(=O)OCO[C@@H]1CC[C@@]2(C)[C@@H](CC[C@@H]3[C@@H]2CC[C@]2(C)[C@@H](C(C)=O)CC[C@@H]32)C1 [Compound I-41, ALL-ASI-C8-2-TG-oleate] | 129 nM | 0.211 µM·h | 1.7 h | 
9 | CCCCCCCC(=O)OCC(COC(=O)CCCCCCC)OC(=O)CC(C)CC(=O)OCOC(=O)O[C@@H]1CC[C@@]2(C)[C@@H](CC[C@@H]3[C@@H]2CC[C@]2(C)[C@@H](C(C)=O)CC[C@@H]32)C1 (stereo partly shown) [Compound I-47, ALL-CASI-C5bMe-2-TG-octanoate] |  |  |  | Tolerability of oral administration [4]: well-tolerated; Prodrug detectability in plasma after dose administration [4]: detectable in plasma samples after dose administration at all time-points; Tmax [4]: 4.0 h
10 | CCCCCCCC/C=C\CCCCCCCC(=O)OCC(COC(=O)CCCCCCC/C=C\CCCCCCCC)OC(=O)CCCCC(C)CC(=O)OCOC(=O)O[C@@H]1CC[C@@]2(C)[C@@H](CC[C@@H]3[C@@H]2CC[C@]2(C)[C@@H](C(C)=O)CC[C@@H]32)C1 (stereo partly shown) [Compound I-49, ALL-CASI-C8b′Me-2-TG-oleate] | 370 nM | 0.513 µM·h | 1.7 h | 
11 | CCC(=O)OCC(COC(=O)CC)OC(=O)C(C)CCCCCCCCC(C)C(=O)OC(C)OC(=O)O[C@@H]1CC[C@@]2(C)[C@@H](CC[C@@H]3[C@@H]2CC[C@]2(C)[C@@H](C(C)=O)CC[C@@H]32)C1 (stereo partly shown) [Compound I-6, ALL-CMSI-C12a′aMe-2-TG] | 239 nM | 0.3209 µM·h | 1 h | 
12 | CCCCCCCC/C=C\CCCCCCCC(=O)OCC(COC(=O)CCCCCCC/C=C\CCCCCCCC)OC(=O)CCCCC(=O)OCO[C@@H]1CC[C@@]2(C)[C@@H](CC[C@@H]3[C@@H]2CC[C@]2(C)[C@@H](C(C)=O)CC[C@@H]32)C1 [Compound I-40, ALL-ASI-C6-2-TG-oleate] | 165 nM | 0.265 µM·h | 1.7 h | 
